From PMC6661775 (BMC Chemistry, 2019)

What was measured:
[1] = Antioxidant activity by DPPH method; conditions: DPPH radical scavenging, 517 nm; ± SEM
Protocol: This method opted for evaluation of free radical scavenging activity of DPPH was based on modified procedure described by […] et al.. The tested compounds were prepared in methanolic solution and reacted with methanolic solution of DPPH at 37 °C. The reaction mixture was prepared in 96-well plate by adding 50 μL of sample, 50 μl of methanol and 50 μl of DPPH solution prepared in 0.1 mM methanol. The mechanism of action of DPPH assay was based on the fact that DPPH radical get reduced during its reaction with an antioxidant compound and results in changes of color (from deep violet to light yellow). […] The mixture of methanol (5.0 ml) and tested compounds (0.2 ml) serve as blank. Ascorbic acid served as positive control.

[2] = Hydrogen peroxide scavenging (H2O2) assay; conditions: 230 nm, pH 7.4, ± SEM, read-out: IC50 (µM) ± SEM, H2O2 method
Protocol: The solution of H2O2 (100 mM) was prepared via adding up different concentrations of synthesized derivatives ranging from 5 to 80 μg/ml to H2O2 solution (2 ml), prepared in 20 mM phosphate buffer of pH 7.4. Finally, the absorbance of H2O2 was measured at 230 nm after incubating for 10 min next to a blank reading of phosphate buffer without H2O2. For every measurement, a fresh reading of blank was taken to carry out background correction. For control sample containing H2O2 was scanned for absorbance at 230 nm. Results calculated as percentage of hydrogen peroxide inhibition was estimated by the formula [(Ab–At)/[…]] × 100, where Ab is the absorbance of the control and At is the absorbance of compounds/standard taken as L-ascorbic acid (5–80 μg/ml) are shown in Table 5.

xanthine oxidase = test system: T1, xanthine oxidase; assay: Enzyme kinetic analysis for XO-inhibitory activity (Michaelis-Menten, Lineweaver-Burk); type: biochemical, human
T1 construct: purchased Sigma (Sigma-Aldrich) MAK078
Protocol: Firstly Michaelis–Menten curve was plotted for the enzyme activity at different concentrations of RU3a3 against different concentration of substrate (xanthine) Fig. 11.
Then double reciprocal plot (Lineweaver–Burk) analysis was done in the presence (0.25, 0.5, and 1.0 µM) and absence of RU3a3 from in vitro data generated during the oxidation of xanthine in presence of xanthine oxidase (Fig. 12). The x- and y axis intercepts of the Lineweaver–Burk plot were utilized to calculate Km and Vmax values of RU3a3 at different concentrations (Table 4).

T1 sequence (P47989 whole entry): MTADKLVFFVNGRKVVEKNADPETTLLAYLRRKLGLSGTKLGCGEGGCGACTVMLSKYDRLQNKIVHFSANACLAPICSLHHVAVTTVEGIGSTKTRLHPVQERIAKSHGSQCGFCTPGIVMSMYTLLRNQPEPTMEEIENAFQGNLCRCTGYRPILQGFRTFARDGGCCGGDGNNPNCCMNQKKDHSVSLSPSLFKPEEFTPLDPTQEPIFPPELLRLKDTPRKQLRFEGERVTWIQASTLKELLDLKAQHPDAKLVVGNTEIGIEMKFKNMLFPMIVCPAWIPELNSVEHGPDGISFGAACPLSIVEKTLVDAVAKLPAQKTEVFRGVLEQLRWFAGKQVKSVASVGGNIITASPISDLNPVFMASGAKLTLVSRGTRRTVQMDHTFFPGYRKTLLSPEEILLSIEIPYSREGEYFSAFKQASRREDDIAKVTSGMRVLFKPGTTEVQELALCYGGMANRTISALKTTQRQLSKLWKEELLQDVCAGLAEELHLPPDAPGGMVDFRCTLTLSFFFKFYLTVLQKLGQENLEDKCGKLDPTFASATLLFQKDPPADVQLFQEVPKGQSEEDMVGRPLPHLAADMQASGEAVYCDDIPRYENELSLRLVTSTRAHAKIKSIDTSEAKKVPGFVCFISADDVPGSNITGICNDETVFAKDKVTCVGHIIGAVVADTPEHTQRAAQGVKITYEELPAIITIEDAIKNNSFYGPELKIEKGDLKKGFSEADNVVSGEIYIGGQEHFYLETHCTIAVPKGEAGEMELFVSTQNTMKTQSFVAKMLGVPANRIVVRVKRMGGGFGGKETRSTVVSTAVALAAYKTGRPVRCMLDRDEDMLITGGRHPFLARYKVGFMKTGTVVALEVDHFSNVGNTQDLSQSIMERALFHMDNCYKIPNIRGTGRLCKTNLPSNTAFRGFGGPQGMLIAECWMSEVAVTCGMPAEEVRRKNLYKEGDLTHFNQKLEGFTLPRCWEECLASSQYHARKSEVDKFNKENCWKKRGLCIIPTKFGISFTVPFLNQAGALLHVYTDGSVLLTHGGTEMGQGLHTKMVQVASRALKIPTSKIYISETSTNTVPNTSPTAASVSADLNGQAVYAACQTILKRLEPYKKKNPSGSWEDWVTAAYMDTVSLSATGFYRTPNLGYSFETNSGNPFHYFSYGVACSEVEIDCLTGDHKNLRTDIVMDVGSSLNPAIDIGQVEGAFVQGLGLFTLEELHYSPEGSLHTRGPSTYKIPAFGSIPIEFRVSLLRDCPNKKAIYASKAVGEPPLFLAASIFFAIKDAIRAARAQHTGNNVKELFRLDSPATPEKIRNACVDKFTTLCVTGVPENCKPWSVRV

Row | SMILES | IC50 [1] [µM] | IC50 [2] [µM] | Vmax of xanthine oxidase (xanthine oxidase; Conc. of RU3a3 0.25 µM) [µmol/min] | Vmax of xanthine oxidase (xanthine oxidase; Conc. of RU3a3 0.5 µM) [µmol/min] | Vmax of xanthine oxidase (xanthine oxidase; Conc. of RU3a3 1.0 µM) [µmol/min] | Manner of xanthine oxidase inhibition (xanthine oxidase; Lineweaver-Burk plot)
1 | CC1OC(OCC2OC(Oc3c(-c4ccc(O)c(O)c4)oc4cc(O)cc(O)c4c3=NNC(N)=S)C(O)C(O)C2O)C(O)C(O)C1O (centres unmarked) [RU3a1] | 5.02 ± 0.1 | 9.13 ± 0.35 | – | – | – | –
2 | CC1OC(OCC2OC(Oc3c(-c4ccc(O)c(O)c4)oc4cc(O)cc(O)c4c3=NNC(=S)Nc3ccccc3)C(O)C(O)C2O)C(O)C(O)C1O (centres unmarked) [RU3a2] | 8.728 ± 0.02 | 4.146 ± 0.01 | – | – | – | –
3 | CC1OC(OCC2OC(Oc3c(-c4ccc(O)c(O)c4)oc4cc(O)cc(O)c4c3=NNc3ccccc3)C(O)C(O)C2O)C(O)C(O)C1O (centres unmarked) [RU3a3] | 11.688 ± 0.01 | 6.56 ± 0.1 | 114.4 | 108.2 | 98.7 | competitive manner
4 | CC1OC(OCC2OC(Oc3c(-c4ccc(O)c(O)c4)oc4cc(O)cc(O)c4c3=Nc3ccc([N+](=O)[O-])cc3Cl)C(O)C(O)C2O)C(O)C(O)C1O (centres unmarked) [RU4b1] | 2.65 ± 0.09 | 9.86 ± 0.25 | – | – | – | –
5 | CC1OC(OCC2OC(Oc3c(-c4ccc(O)c(O)c4)oc4cc(O)cc(O)c4c3=Nc3ccc([N+](=O)[O-])cc3)C(O)C(O)C2O)C(O)C(O)C1O (centres unmarked) [RU4b2] | 8.48 ± 0.25 | 4.378 ± 0.01 | – | – | – | –
6 | COc1cc(OC)c2c(=O)c(OC(=O)c3cccnc3)c(-c3ccc(OC)c(OC)c3)oc2c1 [RU7c1] | 6.06 ± 0.13 | 14.7 ± 0.6 | – | – | – | –
7 | COc1cc(OC)c2c(=O)c(OC(=O)c3ccccc3O)c(-c3ccc(OC)c(OC)c3)oc2c1 [RU7c2] | 14.669 ± 0.01 | 12.1 ± 0.2 | – | – | – | –
8 | COc1cc(OC)c2c(=O)c(OC(=O)/C=C/c3ccccc3)c(-c3ccc(OC)c(OC)c3)oc2c1 [RU7c3] | 7.69 ± 0.42 | 17.9 ± 0.41 | – | – | – | –
